The record followed here is patent publication US8445503B2, “Inhibitors of polo-like kinase” (Elan Pharmaceuticals, Inc., priority 2009, dated 2013).

Bounds are passed on as bounds.

For one test, the target named is PLK2 (Homo sapiens, UniProt Q9NYY3). Kind of test: Kinase panel screening at InVitrogen Corporation, PLK2. The following applies: screening at 10 μM compound.
The target in another test is PLK1 (Homo sapiens, UniProt P53350). In words: Kinase panel screening at InVitrogen Corporation, PLK1. The following applies: screening at 10 μM compound.
Chain of PLK1 (P53350 whole entry): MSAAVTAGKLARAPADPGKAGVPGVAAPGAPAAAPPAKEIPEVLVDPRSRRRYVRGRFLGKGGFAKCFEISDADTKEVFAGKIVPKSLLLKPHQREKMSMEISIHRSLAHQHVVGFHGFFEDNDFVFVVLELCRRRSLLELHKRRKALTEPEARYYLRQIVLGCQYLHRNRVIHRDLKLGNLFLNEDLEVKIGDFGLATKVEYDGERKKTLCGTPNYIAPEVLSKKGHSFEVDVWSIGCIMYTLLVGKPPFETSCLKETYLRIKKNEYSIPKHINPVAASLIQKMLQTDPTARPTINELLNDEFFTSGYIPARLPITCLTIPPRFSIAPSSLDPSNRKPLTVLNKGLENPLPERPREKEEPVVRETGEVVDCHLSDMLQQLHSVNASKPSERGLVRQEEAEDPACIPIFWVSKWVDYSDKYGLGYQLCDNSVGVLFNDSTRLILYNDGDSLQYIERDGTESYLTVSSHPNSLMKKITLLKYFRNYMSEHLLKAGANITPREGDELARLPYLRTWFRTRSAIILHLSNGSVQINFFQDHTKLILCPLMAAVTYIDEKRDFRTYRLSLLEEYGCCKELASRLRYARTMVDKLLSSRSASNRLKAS
Another test has as its target T1, GST-PLK2 (Homo sapiens, UniProt Q9NYY3).
T1 construct: purchased CarnaBio
Kind of test: PLK TR-FRET peptide assay, PLK2. The format is biochemical. The following applies: for IC50: PLK TR-FRET peptide assay, GST-PLK2, read-out: Plk2 IC50.

In the next test the target is GST-PLK1 (Homo sapiens, UniProt P53350). Kind of test: PLK TR-FRET peptide assay, PLK1. Format: biochemical. Conditions: read-out: Plk1 IC50. (In general: In TR-FRET formats the signal depends on donor and acceptor labels being close together.)
Chain of GST-PLK1 (P53350 whole entry): as above
The target of another test is T2, GST-PLK3 (Homo sapiens, UniProt Q9H4B4).
T2 construct: purchased CarnaBio
T2 sequence (Q9H4B4 whole entry): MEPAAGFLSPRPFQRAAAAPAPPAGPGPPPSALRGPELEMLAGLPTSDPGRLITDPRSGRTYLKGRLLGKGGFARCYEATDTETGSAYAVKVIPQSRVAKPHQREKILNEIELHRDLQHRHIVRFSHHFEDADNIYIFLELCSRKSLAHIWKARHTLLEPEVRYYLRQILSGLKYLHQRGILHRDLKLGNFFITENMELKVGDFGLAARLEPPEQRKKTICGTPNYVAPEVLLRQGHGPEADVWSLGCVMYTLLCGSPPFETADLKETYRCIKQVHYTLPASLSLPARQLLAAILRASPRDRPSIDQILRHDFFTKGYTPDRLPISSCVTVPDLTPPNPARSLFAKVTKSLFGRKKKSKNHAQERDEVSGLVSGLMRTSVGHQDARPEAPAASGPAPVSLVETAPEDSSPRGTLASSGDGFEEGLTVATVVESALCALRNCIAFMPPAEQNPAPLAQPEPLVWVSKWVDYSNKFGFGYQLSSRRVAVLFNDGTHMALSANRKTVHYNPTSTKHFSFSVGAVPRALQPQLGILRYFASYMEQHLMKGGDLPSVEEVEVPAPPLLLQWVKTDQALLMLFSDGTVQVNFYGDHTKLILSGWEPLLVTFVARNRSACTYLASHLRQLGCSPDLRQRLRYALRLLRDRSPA
Kind of test: PLK TR-FRET peptide assay, PLK3. Format: biochemical. The following applies: PLK TR-FRET peptide assay, GST-PLK3; read-out: Plk3 IC50.

A further test has as its target KDR (Homo sapiens, UniProt P35968). Kind of test: Kinase panel screening and titration, KDR.
For another test, the target named is ABL1 (Homo sapiens, UniProt P00519). Kind of test: Kinase panel screening and titration, ABL1.
Chain of ABL1 (P00519 whole entry): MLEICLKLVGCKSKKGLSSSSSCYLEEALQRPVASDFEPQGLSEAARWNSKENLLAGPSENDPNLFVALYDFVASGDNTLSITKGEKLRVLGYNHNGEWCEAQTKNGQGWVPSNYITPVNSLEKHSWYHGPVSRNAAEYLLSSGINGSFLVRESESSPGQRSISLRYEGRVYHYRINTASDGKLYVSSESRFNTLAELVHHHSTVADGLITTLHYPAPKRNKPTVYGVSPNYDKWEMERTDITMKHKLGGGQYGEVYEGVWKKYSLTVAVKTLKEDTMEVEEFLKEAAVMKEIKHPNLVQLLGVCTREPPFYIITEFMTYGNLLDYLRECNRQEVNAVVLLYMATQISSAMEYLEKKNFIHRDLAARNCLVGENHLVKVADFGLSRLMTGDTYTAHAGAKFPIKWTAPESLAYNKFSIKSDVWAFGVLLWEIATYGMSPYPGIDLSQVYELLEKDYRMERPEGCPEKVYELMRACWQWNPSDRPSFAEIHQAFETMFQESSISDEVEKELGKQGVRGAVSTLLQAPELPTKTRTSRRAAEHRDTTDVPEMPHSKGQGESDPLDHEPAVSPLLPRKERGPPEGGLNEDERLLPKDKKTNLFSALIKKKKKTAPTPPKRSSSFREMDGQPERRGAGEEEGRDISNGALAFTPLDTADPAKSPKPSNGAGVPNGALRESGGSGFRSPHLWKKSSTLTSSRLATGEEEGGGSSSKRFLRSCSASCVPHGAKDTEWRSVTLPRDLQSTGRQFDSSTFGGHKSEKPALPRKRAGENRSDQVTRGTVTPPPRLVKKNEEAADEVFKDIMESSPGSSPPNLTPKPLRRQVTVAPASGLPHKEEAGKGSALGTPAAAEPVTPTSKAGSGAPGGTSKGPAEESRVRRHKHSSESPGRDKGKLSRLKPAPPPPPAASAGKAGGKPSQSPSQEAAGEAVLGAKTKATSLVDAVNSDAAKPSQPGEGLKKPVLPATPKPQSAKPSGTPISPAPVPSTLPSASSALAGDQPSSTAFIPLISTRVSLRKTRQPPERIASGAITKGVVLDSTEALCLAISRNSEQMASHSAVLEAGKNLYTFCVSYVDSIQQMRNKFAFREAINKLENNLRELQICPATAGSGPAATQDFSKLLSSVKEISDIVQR
Test [1] has as its system over 300 kinases, including CDK-1, CDK-2, CDK-5, CLK-1, CLK-2, CLK-3, CLK-4, NEK-1, NEK-2, NEK-4, NEK-6, NEK-7, MAP4K4 and STK16. In words: Kinase panel screening at InVitrogen Corporation, over 300 kinases. The following applies: 10 μM compound; all but 21 of over 300 kinases, including CDK-1, CDK-2, CDK-5, CLK-1 to CLK-4, NEK-1, -2, -4, -6, -7, MAP4K4, STK16.

Chain of PLK2 (Q9NYY3 whole entry): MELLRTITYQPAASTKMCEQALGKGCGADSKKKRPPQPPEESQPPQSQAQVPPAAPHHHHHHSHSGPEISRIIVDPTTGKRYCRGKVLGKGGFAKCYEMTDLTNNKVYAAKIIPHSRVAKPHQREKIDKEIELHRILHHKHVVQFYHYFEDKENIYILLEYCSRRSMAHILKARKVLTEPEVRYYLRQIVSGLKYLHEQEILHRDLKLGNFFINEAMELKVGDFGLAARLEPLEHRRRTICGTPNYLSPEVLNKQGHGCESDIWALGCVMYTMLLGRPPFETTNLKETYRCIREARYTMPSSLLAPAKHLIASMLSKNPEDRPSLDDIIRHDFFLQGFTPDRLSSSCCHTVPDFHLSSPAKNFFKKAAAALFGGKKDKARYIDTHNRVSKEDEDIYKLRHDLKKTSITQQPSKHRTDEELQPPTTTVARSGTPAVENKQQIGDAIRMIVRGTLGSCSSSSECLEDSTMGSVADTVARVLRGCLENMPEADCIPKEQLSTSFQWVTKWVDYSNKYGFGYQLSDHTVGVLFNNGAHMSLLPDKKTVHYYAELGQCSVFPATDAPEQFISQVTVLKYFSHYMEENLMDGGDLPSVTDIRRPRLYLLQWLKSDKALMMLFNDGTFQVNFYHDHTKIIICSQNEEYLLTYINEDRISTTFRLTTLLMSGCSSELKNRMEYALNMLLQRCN
T1 sequence (Q9NYY3 whole entry): as above
Chain of KDR (P35968 20-1356): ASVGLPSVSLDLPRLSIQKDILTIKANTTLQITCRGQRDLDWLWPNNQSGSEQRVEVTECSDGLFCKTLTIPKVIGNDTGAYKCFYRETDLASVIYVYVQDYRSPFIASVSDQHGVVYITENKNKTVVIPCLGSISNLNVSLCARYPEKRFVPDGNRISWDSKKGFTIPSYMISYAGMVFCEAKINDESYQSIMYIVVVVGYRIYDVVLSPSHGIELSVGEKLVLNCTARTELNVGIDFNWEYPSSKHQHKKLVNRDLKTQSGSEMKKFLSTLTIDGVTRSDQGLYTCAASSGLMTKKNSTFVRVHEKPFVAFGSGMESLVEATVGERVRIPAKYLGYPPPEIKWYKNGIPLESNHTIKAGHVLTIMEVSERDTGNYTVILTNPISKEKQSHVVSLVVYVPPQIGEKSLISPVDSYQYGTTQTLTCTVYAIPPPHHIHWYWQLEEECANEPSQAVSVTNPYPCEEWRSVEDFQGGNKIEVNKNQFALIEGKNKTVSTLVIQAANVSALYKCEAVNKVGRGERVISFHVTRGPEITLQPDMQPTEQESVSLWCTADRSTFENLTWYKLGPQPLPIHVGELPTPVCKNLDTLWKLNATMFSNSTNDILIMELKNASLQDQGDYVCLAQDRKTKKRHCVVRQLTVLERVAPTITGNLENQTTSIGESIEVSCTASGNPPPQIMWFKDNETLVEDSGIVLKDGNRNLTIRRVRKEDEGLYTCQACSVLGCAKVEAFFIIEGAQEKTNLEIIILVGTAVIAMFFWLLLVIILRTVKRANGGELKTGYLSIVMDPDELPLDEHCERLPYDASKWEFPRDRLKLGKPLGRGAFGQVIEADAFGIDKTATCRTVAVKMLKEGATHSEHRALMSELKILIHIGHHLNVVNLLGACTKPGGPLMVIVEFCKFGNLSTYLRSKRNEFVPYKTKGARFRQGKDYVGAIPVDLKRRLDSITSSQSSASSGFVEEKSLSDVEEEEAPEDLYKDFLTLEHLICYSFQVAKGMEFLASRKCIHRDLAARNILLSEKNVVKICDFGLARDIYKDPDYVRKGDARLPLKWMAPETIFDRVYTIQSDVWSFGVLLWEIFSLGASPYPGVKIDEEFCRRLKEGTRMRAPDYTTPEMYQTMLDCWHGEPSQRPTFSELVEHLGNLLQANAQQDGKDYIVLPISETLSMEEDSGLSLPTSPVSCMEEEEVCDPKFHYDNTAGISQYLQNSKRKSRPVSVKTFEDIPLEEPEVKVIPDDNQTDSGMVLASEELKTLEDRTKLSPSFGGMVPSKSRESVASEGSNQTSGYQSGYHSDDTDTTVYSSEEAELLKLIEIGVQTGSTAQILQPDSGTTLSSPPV

`CC[C@@H]1C(=O)N(C)c2cnc(-n3ccnc3-c3ccccc3)nc2N1C1CCCC1` [Example 26, (R)-8-cyclopentyl-7-ethyl-5-methyl-2-(2-phenyl-1H-imidazol-1-yl)-7,8-dihydropteridin-6(5H)-one]: the “activity against PLK2 in kinase panel” value on PLK2 was “potent”.

On to `CC[C@@H]1C(=O)N(C)c2cnc(-n3ccnc3-c3cscn3)nc2N1C1CCCC1` [Example 68], for which the “activity against PLK2 in kinase panel” value at PLK2 is “potent”. On PLK1, the “activity against PLK1 in kinase panel” value is recorded as “potent”.

As usually defined, the IC50 is the concentration that gives 50% inhibition. In the case of `CC[C@@]12CCCN1c1nc(-n3ccnc3-c3ccccc3)ncc1N(C)C2=O` [Example 76, (S)-6a-ethyl-5-methyl-2-(2-phenyl-1H-imidazol-1-yl)-6a,7,8,9-tetrahydropyrrolo[2,1-h]pteridin-6(5H)-one], on PLK2, the “activity against PLK2 in kinase panel” value is on record as “potent”. In addition, the IC50 on GST-PLK2 was less than 1 µM; at GST-PLK1, 10 to 50 µM; at GST-PLK3 it was 1 to 10 µM. Besides, the “activity against PLK1 in kinase panel” value on PLK1 is listed as “potent”.

On to `CC[C@@H]1C(=O)N(C)c2cnc(-n3ccnc3-c3cccc(F)c3)nc2N1C1CCOC1` (stereo partly shown) [Example 192], for which the “activity against PLK2 in kinase panel” value at PLK2 was “potent”. The “percent inhibition of KDR” value at KDR (10 μM compound) was “greater than 80%”. Moreover, the IC50 on KDR (read-out: IC50 KDR, when titrated) was greater than 10 µM; at ABL1 (read-out: IC50 ABL1, when titrated), greater than 10 µM. The “percent inhibition of ABL1” value at ABL1 (10 μM compound) was “greater than 80%”. In addition, on PLK1, the “activity against PLK1 in kinase panel” value is recorded as “potent”. Also, in test [1], the “percent inhibition of kinase” value is given as “below 40%”.

As for `CC[C@@]12COCCN1c1nc(-c3cn[nH]c3-c3ccc(F)cc3F)ncc1N(C)C2=O` [Example 411, (S)-2-(5-(2,4-difluorophenyl)-1H-pyrazol-4-yl)-6a-ethyl-5-methyl-6a,7,9,10-tetrahydro-[1,4]oxazino[3,4-h]pteridin-6(5H)-one], the results for the IC50 on GST-PLK2, on GST-PLK1 and on GST-PLK3 were less than 1 µM, 10 to 50 µM and 1 to 10 µM, respectively. For the same compound, on GST-PLK2 (comparison of resolved enantiomers, used to assign absolute configuration), the “PLK2 activity relative to the opposite enantiomer / other isomer” value was “more active compound”.

For `CC[C@]12COCCN1c1nc(-c3cn[nH]c3-c3ccc(F)cc3F)ncc1N(C)C2=O` [Example 412, (R)-2-(5-(2,4-difluorophenyl)-1H-pyrazol-4-yl)-6a-ethyl-5-methyl-6a,7,9,10-tetrahydro-[1,4]oxazino[3,4-h]pteridin-6(5H)-one], the IC50 is 1 to 10 µM on GST-PLK2, greater than 50 µM at GST-PLK1 and greater than 50 µM on GST-PLK3.

Turning to `CC[C@@]12COCCN1c1nc(-c3cnoc3-c3ccccc3)ncc1N(C)C2=O` [Example 413, (S)-6a-ethyl-5-methyl-2-(5-phenylisoxazol-4-yl)-6a,7,9,10-tetrahydro-[1,4]oxazino[3,4-h]pteridin-6(5H)-one], the IC50 is less than 1 µM at GST-PLK2, 10 to 50 µM at GST-PLK1 and 10 to 50 µM on GST-PLK3.

Turning to `CC[C@]12COCCN1c1nc(-c3cnoc3-c3ccccc3)ncc1N(C)C2=O` [Example 414, (R)-6a-ethyl-5-methyl-2-(5-phenylisoxazol-4-yl)-6a,7,9,10-tetrahydro-[1,4]oxazino[3,4-h]pteridin-6(5H)-one], the IC50 on GST-PLK2, on GST-PLK1 and on GST-PLK3 was greater than 50 µM in each case.

Take `CC[C@@]12COCCN1c1nc(-c3snnc3-c3ccc(F)cn3)ncc1N(C)C2=O` [Example 415, (S)-6a-ethyl-2-(4-(5-fluoropyridin-2-yl)-1,2,3-thiadiazol-5-yl)-5-methyl-6a,7,9,10-tetrahydro-[1,4]oxazino[3,4-h]pteridin-6(5H)-one]: the IC50 on GST-PLK2 is 1 to 10 µM; at GST-PLK1, greater than 50 µM; on GST-PLK3 it was greater than 50 µM.

`CC[C@]12COCCN1c1nc(-c3snnc3-c3ccc(F)cn3)ncc1N(C)C2=O` [Example 416, (R)-6a-ethyl-2-(4-(5-fluoropyridin-2-yl)-1,2,3-thiadiazol-5-yl)-5-methyl-6a,7,9,10-tetrahydro-[1,4]oxazino[3,4-h]pteridin-6(5H)-one]: the IC50 on GST-PLK2 was 10 to 50 µM; on GST-PLK1, greater than 50 µM; on GST-PLK3 it was greater than 50 µM.

On to `CC[C@@H]1C(=O)N(C)c2cnc(-c3cn(C)nc3-c3nccs3)nc2N1c1cnn(C)c1` [Example 417, (R)-7-ethyl-5-methyl-8-(1-methyl-1H-pyrazol-4-yl)-2-(1-methyl-3-(thiazol-2-yl)-1H-pyrazol-4-yl)-7,8-dihydropteridin-6(5H)-one], for which the IC50 was less than 1 µM on GST-PLK2, 10 to 50 µM on GST-PLK1 and greater than 50 µM at GST-PLK3.

`CCC1C(=O)N(C)c2cnc(-c3c[nH]nc3-c3ccc(F)cc3F)nc2N1c1ccn(C)n1` (stereo not shown) [Example 420, 2-(3-(2,4-difluorophenyl)-1H-pyrazol-4-yl)-7-ethyl-5-methyl-8-(1-methyl-1H-pyrazol-3-yl)-7,8-dihydropteridin-6(5H)-one]: the IC50 on GST-PLK2, at GST-PLK1 and on GST-PLK3 was less than 1 µM in each case.
